Nine compounds from ChEMBL document CHEMBL4265887 (Bioorg Med Chem Lett, 2018) can be followed below.

Structures are written as SMILES. Converted amounts (≈) assume the structure as drawn. The source made the active and inactive calls. No cut-off for these calls is given here.

Data set [1] can be described thus: Solubility of the compound in phosphate buffer of pH 7.4 after 24 hrs by RP-HPLC analysis. In kind it is physicochemical. Particulars: phosphate buffer, pH 7.4.
For the next data set, the system named is HCT-15. Kind of data set: Cytotoxicity against human HCT15 cells assessed as reduction in cell viability after 48 hrs by MTT assay. As to conditions: HCT-15, 48 h. The data set is classed as functional, cell-based. On the technique in general: Formazan colour is commonly taken as a measure of viable cells.
The subject of data set [2] is HCT-116. Kind of data set: Inhibition of cytokinesis in human HCT116 cells at 100 nM after 24 hrs by propidium iodide/RNase staining-based flow cytometric analysis. The data set is classed as functional, cell-based.
The target of the next data set is T1, Aurora kinase A (Homo sapiens, UniProt O14965).
T1 sequence (O14965 whole entry): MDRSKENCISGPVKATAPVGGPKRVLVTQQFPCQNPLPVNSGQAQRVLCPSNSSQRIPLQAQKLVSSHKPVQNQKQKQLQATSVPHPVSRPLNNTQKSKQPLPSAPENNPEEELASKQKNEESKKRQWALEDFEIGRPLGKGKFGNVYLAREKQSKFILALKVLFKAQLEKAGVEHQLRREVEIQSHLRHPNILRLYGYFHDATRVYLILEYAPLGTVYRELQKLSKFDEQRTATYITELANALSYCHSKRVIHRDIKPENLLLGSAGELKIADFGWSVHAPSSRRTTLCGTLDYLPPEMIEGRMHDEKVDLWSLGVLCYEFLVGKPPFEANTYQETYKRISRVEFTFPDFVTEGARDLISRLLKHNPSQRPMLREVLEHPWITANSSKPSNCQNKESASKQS
The experiment in a line: Inhibition of recombinant Aurora A (unknown origin) using TAMRA-PKAtide as substrate after 30 mins by fluorescence polarization assay. On the technique in general: Polarisation of emitted light reports the rotation of a fluorescent probe.

Data set [3] concerns HCT-116. The experiment in a line: Induction of apoptosis in human HCT116 cells at 1 uM after 72 hrs by Annexin V-FITC/propidium iodide staining-based flow cytometric analysis. In kind it is functional, cell-based. A general note: A flow cytometer gives signals particle by particle.
Data set [4] deals with T2, Aurora kinase B (Homo sapiens, UniProt Q96GD4). Kind of data set: Inhibition of recombinant Aurora B (unknown origin) using TAMRA-PKAtide as substrate after 1 hr by fluorescence polarization assay.
Data set [5] concerns HCT-116. Kind of data set: Induction of apoptosis in human HCT116 cells at 100 nM after 72 hrs by Annexin V-FITC staining-based flow cytometric analysis. In kind it is functional, cell-based.
Data set [6] deals with HCT-116. The experiment in a line: Cytotoxicity against human HCT116 cells assessed as reduction in cell viability after 48 hrs by MTT assay. The data set is classed as functional, cell-based. As to conditions: HCT-116, 48 h.
Data set [7] is described as follows: Solubility of the compound in phosphate buffer of pH 2 after 24 hrs by RP-HPLC analysis. In kind it is physicochemical.
Data set [8] deals with HCT-116. The experiment in a line: Inhibition of cytokinesis in human HCT116 cells at 1 uM after 24 hrs by propidium iodide/RNase staining-based flow cytometric analysis. In kind it is functional, cell-based.
In data set [9] the target is T2, Aurora kinase B. The experiment in a line: Inhibition of Aurora B phosphorylation at Thr232 residue in human HCT116 cells over 100 nM after 3 hrs by Western blot method. The data set is classed as cell-based.

T2 sequence (Q96GD4 whole entry): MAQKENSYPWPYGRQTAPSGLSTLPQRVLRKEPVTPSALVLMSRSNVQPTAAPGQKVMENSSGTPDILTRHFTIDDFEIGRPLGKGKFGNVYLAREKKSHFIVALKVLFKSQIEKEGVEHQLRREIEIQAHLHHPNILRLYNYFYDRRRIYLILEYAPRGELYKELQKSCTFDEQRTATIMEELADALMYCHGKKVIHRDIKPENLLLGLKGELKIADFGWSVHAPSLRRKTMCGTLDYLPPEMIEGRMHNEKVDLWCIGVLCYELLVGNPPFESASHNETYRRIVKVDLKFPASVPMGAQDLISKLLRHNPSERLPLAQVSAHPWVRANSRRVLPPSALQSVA

Turning to `CNC(=O)Nc1sc2c(C(C)C)cc(NS(=O)(=O)c3ccccc3)cc2c1C(N)=O`, the solubility at 24 h in data set [1] worked out at 1.7 µM (≈ 0.759 µg/mL); in data set [7] it was 1.3 µM (≈ 0.581 µg/mL). The IC50 in the data set on HCT-15 turned out to be 890 nM; at Aurora kinase A it was 37 nM; at Aurora kinase B [4], 35 nM; with HCT-116 [6] it was 310 nM. In addition, the “Cytokinesis inhibition (active/inactive call)” value in the data set on HCT-116 [2] and with HCT-116 [8] was “Active” throughout. The outcome in the data set with HCT-116 [3] and in the data set on HCT-116 [5] was Active.
`Cc1cc(Nc2cc(N3CCN(C)CC3)nc(Sc3ccc(NC(=O)C4CC4)cc3)n2)n[nH]1` [TOZASERTIB]: the IC50 is 1230 nM in the data set on HCT-15 and 450 nM in the data set on HCT-116 [6]. Further, the “Cytokinesis inhibition (active/inactive call)” value in the data set with HCT-116 [2] and in the data set with HCT-116 [8] was “Active” each time.
For `CC(C)c1cc(NS(=O)(=O)c2ccccc2)cc2c(C(N)=O)c(NC(=O)C3CC3)sc12`, the IC50 on Aurora kinase A came out at 827 nM; at Aurora kinase B [4], 417 nM; in the data set with HCT-116 [6], 1390 nM.
For `CNC(=O)Nc1sc2c(C(C)C)cc(NS(=O)(=O)c3cccc(C)c3)cc2c1C(N)=O`, the solubility at 24 h in data set [1] turned out to be 3.6 µM (≈ 1.66 µg/mL); in data set [7], 2.6 µM (≈ 1.2 µg/mL). Further, the IC50 worked out at 1680 nM in the data set with HCT-15, 95 nM at Aurora kinase A, 46 nM at Aurora kinase B [4] and 470 nM with HCT-116 [6]. Further, the “Cytokinesis inhibition (active/inactive call)” value in the data set on HCT-116 [2] and in the data set on HCT-116 [8] was “Active” throughout. Further, the result in the data set with HCT-116 [3] and in the data set on HCT-116 [5] was Active.
`CCS(=O)(=O)Nc1cc(C(C)C)c2sc(NC(=O)NC)c(C(N)=O)c2c1`: the solubility at 24 h in data set [1] turned out to be 13.6 µM (≈ 5.42 µg/mL); in data set [7], 11.4 µM (≈ 4.54 µg/mL). Also, the IC50 with HCT-15 stood at 4980 nM; at Aurora kinase A, 24 nM; at Aurora kinase B [4], 38 nM; in the data set on HCT-116 [6], 600 nM. For the same compound, the “Cytokinesis inhibition (active/inactive call)” value in the data set with HCT-116 [2] and in the data set with HCT-116 [8] was “Active” throughout. Also, the outcome in the data set with HCT-116 [3] and in the data set with HCT-116 [5] was inactive.
In the case of `CNC(=O)Nc1sc2c(C(C)C)cc(NS(=O)(=O)c3cc(C)cs3)cc2c1C(N)=O`, the solubility at 24 h in data set [1] is 1.4 µM (≈ 0.653 µg/mL); in data set [7], 1.6 µM (≈ 0.747 µg/mL). The IC50 in the data set with HCT-15 turned out to be 1680 nM; on Aurora kinase A, 80 nM; at Aurora kinase B [4], 48 nM; in the data set with HCT-116 [6], 340 nM. Besides, the “Cytokinesis inhibition (active/inactive call)” value in the data set with HCT-116 [2] and in the data set on HCT-116 [8] was “Active” throughout. For the same compound, the result in the data set with HCT-116 [3] and in the data set with HCT-116 [5] was Active.
As to `CCCNS(=O)(=O)Nc1cc(C(C)C)c2sc(NC(=O)NC)c(C(N)=O)c2c1`, the IC50 in the data set on HCT-15 came out at 4710 nM; on Aurora kinase A it was 21 nM; on Aurora kinase B [4], 11 nM; in the data set on HCT-116 [6], 410 nM. The “Cytokinesis inhibition (active/inactive call)” value in the data set with HCT-116 [2] and in the data set on HCT-116 [8] was “Active” throughout. The result with HCT-116 [3] and in the data set with HCT-116 [5] was inactive.
In the case of `CNC(=O)Nc1sc2c(C(C)C)cc(NS(=O)(=O)c3ccn(C)n3)cc2c1C(N)=O`, the solubility at 24 h in [1] worked out at 6.2 µM (≈ 2.79 µg/mL); in [7], 4.2 µM (≈ 1.89 µg/mL). The IC50 came out at 6130 nM in the data set on HCT-15, 5 nM at Aurora kinase A, 17 nM on Aurora kinase B [4] and 560 nM with HCT-116 [6]. Further, the “Cytokinesis inhibition (active/inactive call)” value with HCT-116 [2] and in the data set with HCT-116 [8] was “Active” in each case. Further, the result with HCT-116 [3] and in the data set on HCT-116 [5] was Active.
Consider `O=C(O)c1ccc(Nc2ncc3c(n2)-c2ccc(Cl)cc2C(c2c(F)cccc2F)=NC3)cc1` [MLN-8054], for which the solubility at 24 h was 98.2 µM (≈ 46.9 µg/mL) in data set [1] and 5.8 µM (≈ 2.77 µg/mL) in data set [7]. Besides, the result in the data set on HCT-116 [3] and in the data set with HCT-116 [5] was inactive. Moreover, the inhibition result at Aurora kinase B [9] was “Active”. In addition, the IC50 in the data set on HCT-116 [6] is 850 nM.

For orientation: solubility means the concentration that dissolves in the medium under given conditions. Low values mean a poorly soluble substance, high ones a readily soluble substance. A word on the IC50: it is the point on the concentration scale where inhibition reaches its midpoint.
